Converted amounts (≈) assume the structure as drawn. Where a SMILES comes first, the peptide text is derived from it. Where no end group is shown, it is not given here. [ ]: non-standard residue; d: D form. The star is where a group is joined. Octanoyl = CCCCCCCC(=O)*

Data set [1] has as its system S. enterica serovar Typhimurium 14 028s PmrAB knockout. It counts as cell-based. The conditions noted are these: broth microdilution, serial twofold dilution in MNMM, 18–20 h at 37 °C with agitation, read by visible turbidity. The protocol: (§1) The antimicrobial activity of the peptides was examined in sterile 96-wells plates (Nunc F96 microtiter plates) in a final volume of 100 μL as follows. Aliquots (50 μL) of an overnight suspension-containing bacteria (late-log phase diluted 1:5000) were added to 50 μL of modified N-minimal media (MNMM) containing the peptides in a serial twofold dilution, and antibiotics, if required, to select for the specific mutant. Inhibition of growth was determined by the visibility of turbidity in comparison to blank with no growth after an incubation of 18–20 h at 37 °C with agitation. Antibacterial activity was expressed as the minimal inhibitory concentration (MIC) in which no growth could be observed.
(§2) We investigated both natural and de novo-designed AMPs (Table 1). The list includes (i) the human cathelicidin LL-37, (ii) a de novo-designed 15-mer AMP designated K6L9 and (iii) its D,L-amino acid-containing analogue, D,L-K6L9, and (iv) D,L amino acid histidine derivative, D,L-H6L9, (v) a 12-mer D,L-K5L7 and (vi) its caprylic-acid-conjugated analogue C8-D,L-K5L7, and (vii) the frog antimicrobial peptide Temporin L.[23] These peptides have different net positive charges under the experimental conditions, as well as hydrophobicity (represented by RP-HPLC retention times), as indicated in Table 1. The peptides were tested for their antibacterial activity against WT S. enterica serovar Typhimurium ATCC 14028 (S. typhimurium) and its mutants (Table 2). The minimal inhibitory concentration (MIC) was defined using a broth microdilution antimicrobial assay. S. typhimurium have been widely used for the exploration of bacterial resistance acquired from these two TCSs.[52],[53]

The test system of data set [2] is S. enterica serovar Typhimurium 14 028s phoP and PmrAB knockout. It counts as cell-based. The note with it: broth microdilution, serial twofold dilution in MNMM, 18–20 h at 37 °C with agitation, read by visible turbidity; phoP and PmrAB double knockout. The protocol:
as §1, §2

Data set [3] relates to S. enterica serovar Typhimurium 14 028s phoP knockout. It counts as cell-based. The conditions noted are these: broth microdilution, serial twofold dilution in MNMM, 18–20 h at 37 °C with agitation, read by visible turbidity. As to the method: as §1, §2
For data set [4], the system named is S. enterica serovar Typhimurium 14 028s wild-type. It counts as cell-based. The conditions noted are these: broth microdilution, serial twofold dilution in modified N-minimal media (MNMM), 18–20 h at 37 °C with agitation, read by visible turbidity; WT ATCC 14028. As to the method:
as §1, §2

Data set [5] in a line: RP-HPLC retention as measure of hydrophobicity. The conditions noted are these: C18 column, linear gradient 10–90% acetonitrile in water with 0.1% TFA in 40 min, 1.8 mL/min; for retention time: RP-HPLC retention time used as measure of hydrophobicity; for relative hydrophobicity (% ACN): percent of acetonitrile at the retention time, RP-HPLC. It counts as physicochemical.
From the text: The peptides were synthesized by a solid phase method on a rink amide MBHA resin using an ABI 433A automatic peptide synthesizer (Applied Biosystems). The resin-bound peptides (0.1 mequiv each) were cleaved from the resins by trifluoroacetic acid (TFA), washed with dry ether, and extracted with acetonitrile/water (50% v/v). All peptides were amidated at their C terminus. The peptides were further purified by reverse-phase high-pressure liquid chromatography (RP-HPLC) on a C18 reverse-phase Bio-Rad column (250 × 10 mm^2, 300 Å pore size, 5 μm particle size). A linear gradient of 10–90% acetonitrile in water containing 0.1% TFA (v/v) in 40 min was used at a flow rate of 1.8 mL/min. […] Electrospray mass spectroscopy confirmed their identity.[23]
as §2

For `CCCCCCCC(=O)N[C@@H](CCCCN)C(=O)N[C@@H](CCCCN)C(=O)N[C@H](CC(C)C)C(=O)N[C@H](CC(C)C)C(=O)N[C@@H](CCCCN)C(=O)N[C@@H](CC(C)C)C(=O)N[C@@H](CC(C)C)C(=O)N[C@H](CC(C)C)C(=O)N[C@@H](CCCCN)C(=O)N[C@H](CC(C)C)C(=O)N[C@@H](CC(C)C)C(=O)N[C@@H](CCCCN)C(N)=O` [C8-D,L-K5L7] (Octanoyl-KK[dL][dL]KLL[dL]K[dL]LK-NH2), the “MIC, pmrAB-KO” value in data set [1] stood at 6.25 µM (≈ 9.85 µg/mL). The “MIC, DKO” value in data set [2] was determined as 3.125 µM (≈ 4.93 µg/mL). For the same compound, the “MIC, phoP-KO” value in data set [3] is 3.125 µM (≈ 4.93 µg/mL). Moreover, the “MIC, WT” value in data set [4] was 3.125 µM (≈ 4.93 µg/mL). In addition, in data set [5], the retention time was 29.1 min and the “relative hydrophobicity (% ACN)” value stood at 68.2 % ACN.
Consider `CC(C)C[C@H](NC(=O)[C@H](CC(C)C)NC(=O)[C@@H](Cc1c[nH]cn1)NC(=O)[C@H](CC(C)C)NC(=O)[C@H](CC(C)C)NC(=O)[C@H](Cc1c[nH]cn1)NC(=O)[C@@H](Cc1c[nH]cn1)NC(=O)[C@@H](CC(C)C)NC(=O)[C@H](CC(C)C)NC(=O)[C@@H](Cc1c[nH]cn1)NC(=O)[C@H](Cc1c[nH]cn1)NC(=O)[C@H](CC(C)C)NC(=O)[C@@H](CC(C)C)NC(=O)[C@H](Cc1c[nH]cn1)NC(=O)[C@@H](N)CC(C)C)C(N)=O` [D,L-H6L9] (H-LH[dL]LH[dH]L[dL][dH]HLL[dH]LL-NH2; N-terminus assumed), for which the “MIC, pmrAB-KO” value in data set [1] turned out to be 50 µM (≈ 92.9 µg/mL). Also, in data set [2], the “MIC, DKO” value is 50 µM (≈ 92.9 µg/mL). Besides, in data set [3], the “MIC, phoP-KO” value stood at 50 µM (≈ 92.9 µg/mL). Besides, the “MIC, WT” value in data set [4] is 100 µM (≈ 186 µg/mL). For the same compound, in data set [5], the retention time worked out at 29.3 min and the “relative hydrophobicity (% ACN)” value stood at 68.6 % ACN.
As to `CC(C)C[C@H](NC(=O)[C@H](CCCCN)NC(=O)[C@@H](CC(C)C)NC(=O)[C@@H](CC(C)C)NC(=O)[C@H](CCCCN)NC(=O)[C@@H](N)CCCCN)C(=O)N[C@@H](CC(C)C)C(=O)N[C@H](CC(C)C)C(=O)N[C@@H](CCCCN)C(=O)N[C@H](CC(C)C)C(=O)N[C@@H](CC(C)C)C(=O)N[C@@H](CCCCN)C(N)=O` [D,L-K5L7] (H-KK[dL][dL]KLL[dL]K[dL]LK-NH2; N-terminus assumed), the “MIC, pmrAB-KO” value in data set [1] was 12.5 µM (≈ 18.1 µg/mL). In addition, the “MIC, DKO” value in data set [2] was determined as 3.125 µM (≈ 4.53 µg/mL). Also, the “MIC, phoP-KO” value in data set [3] came out at 1.56 µM (≈ 2.26 µg/mL). Also, the “MIC, WT” value in data set [4] stood at 6.25 µM (≈ 9.06 µg/mL). For the same compound, in data set [5], the retention time is 23.5 min and the “relative hydrophobicity (% ACN)” value was 57 % ACN.
Take `CC(C)C[C@H](NC(=O)[C@H](CC(C)C)NC(=O)[C@@H](CCCCN)NC(=O)[C@H](CC(C)C)NC(=O)[C@H](CC(C)C)NC(=O)[C@H](CCCCN)NC(=O)[C@@H](CCCCN)NC(=O)[C@@H](CC(C)C)NC(=O)[C@H](CC(C)C)NC(=O)[C@@H](CCCCN)NC(=O)[C@H](CCCCN)NC(=O)[C@H](CC(C)C)NC(=O)[C@@H](CC(C)C)NC(=O)[C@H](CCCCN)NC(=O)[C@@H](N)CC(C)C)C(N)=O` [D,L-K6L9] (H-LK[dL]LK[dK]L[dL][dK]KLL[dK]LL-NH2; N-terminus assumed): in data set [1], the “MIC, pmrAB-KO” value was 1.56 µM (≈ 2.82 µg/mL). Moreover, the “MIC, DKO” value in data set [2] was 0.78 µM (≈ 1.41 µg/mL). For the same compound, the “MIC, phoP-KO” value in data set [3] worked out at 0.39 µM (≈ 0.704 µg/mL). Besides, the “MIC, WT” value in data set [4] was 1.56 µM (≈ 2.82 µg/mL). In addition, in data set [5], the retention time came out at 27.7 min and the “relative hydrophobicity (% ACN)” value turned out to be 65.4 % ACN.
Regarding `CC[C@H](C)[C@H](NC(=O)[C@H](CCCCN)NC(=O)[C@H](CCC(=O)O)NC(=O)[C@H](CCCCN)NC(=O)[C@H](CO)NC(=O)[C@H](CCCCN)NC(=O)[C@H](CCCNC(=N)N)NC(=O)[C@H](Cc1ccccc1)NC(=O)[C@H](Cc1ccccc1)NC(=O)[C@H](CC(=O)O)NC(=O)CNC(=O)[C@H](CC(C)C)NC(=O)[C@@H](N)CC(C)C)C(=O)NCC(=O)N[C@@H](CCCCN)C(=O)N[C@@H](CCC(=O)O)C(=O)N[C@@H](Cc1ccccc1)C(=O)N[C@@H](CCCCN)C(=O)N[C@@H](CCCNC(=N)N)C(=O)N[C@H](C(=O)N[C@H](C(=O)N[C@@H](CCC(N)=O)C(=O)N[C@@H](CCCNC(=N)N)C(=O)N[C@H](C(=O)N[C@@H](CCCCN)C(=O)N[C@@H](CC(=O)O)C(=O)N[C@@H](Cc1ccccc1)C(=O)N[C@@H](CC(C)C)C(=O)N[C@@H](CCCNC(=N)N)C(=O)N[C@@H](CC(N)=O)C(=O)N[C@@H](CC(C)C)C(=O)N[C@H](C(=O)N1CCC[C@H]1C(=O)N[C@@H](CCCNC(=N)N)C(=O)N[C@H](C(=O)N[C@@H](CCC(=O)O)C(=O)N[C@@H](CO)C(N)=O)[C@@H](C)O)C(C)C)[C@@H](C)CC)C(C)C)[C@@H](C)CC` [LL-37, reference compound], the “MIC, pmrAB-KO” value in data set [1] came to 6.25 µM (≈ 28.1 µg/mL). Also, the “MIC, DKO” value in data set [2] stood at 3.125 µM (≈ 14 µg/mL). The “MIC, phoP-KO” value in data set [3] was found to be 1.56 µM (≈ 7.01 µg/mL). In addition, the “MIC, WT” value in data set [4] turned out to be 3.125 µM (≈ 14 µg/mL).
In the case of “FVQWFSKFLGRIL-NH2 [Temporin L, reference compound]”, in data set [1], the “MIC, pmrAB-KO” value is 25 µM. For the same compound, the “MIC, DKO” value in data set [2] came out at 25 µM. Moreover, the “MIC, phoP-KO” value in data set [3] came to 12.5 µM. In data set [4], the “MIC, WT” value was 25 µM.
As to LKLLKKLLKKLLKLL-NH2 [L-K6L9], the “MIC, pmrAB-KO” value in data set [1] was determined as 3.125 µM. For the same compound, the “MIC, DKO” value in data set [2] came out at 3.125 µM. Also, the “MIC, phoP-KO” value in data set [3] was found to be 0.39 µM. Further, in data set [4], the “MIC, WT” value is 1.56 µM.

Values taken from article PMC8638962, “Opposing Effects of PhoPQ and PmrAB on the Properties of Salmonella enterica serovar Typhimurium: Implications on Resistance to Antimicrobial Peptides” (Biochemistry, 2021).
